From the supplement of paper PMC10307832

Experiments:
Test in all cases: relative viability (nuclei count vs DMSO), 5 days (fraction); higher = more cells survive
Elesclomol + Dasatinib = compound: CN(NC(=O)CC(=O)NN(C)C(=S)c1ccccc1)C(=S)c1ccccc1 [Elesclomol] + Cc1nc(Nc2ncc(C(=O)Nc3c(C)cccc3Cl)s2)cc(N2CCN(CCO)CC2)n1 [Dasatinib] (partner 0.075 µM)
Outline: (§1)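 Medians of duplicate plates are given as relative viability. That measure is the nuclei count in treated wells divided by the count in vehicle wells. Counts were taken on 4× images of lung cancer cell lines in 1536-well plates, 5 days after pin-tool dosing the day after seeding with one drug alone or a fixed anchor-drug dose plus five library-drug doses (not always all listed) in √10 steps.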

Elesclomol + AZD7762 = compound: CN(NC(=O)CC(=O)NN(C)C(=S)c1ccccc1)C(=S)c1ccccc1 [Elesclomol] + NC(=O)Nc1cc(-c2cccc(F)c2)sc1C(=O)N[C@H]1CCCNC1 [AZD7762] (partner 0.2 µM)
Outline: as §1

Elesclomol + Tozasertib = compound: CN(NC(=O)CC(=O)NN(C)C(=S)c1ccccc1)C(=S)c1ccccc1 [Elesclomol] + Cc1cc(Nc2cc(N3CCN(C)CC3)nc(Sc3ccc(NC(=O)C4CC4)cc3)n2)n[nH]1 [Tozasertib] (partner 0.1 µM)
Outline: as §1

Elesclomol + Phenformin = compound: CN(NC(=O)CC(=O)NN(C)C(=S)c1ccccc1)C(=S)c1ccccc1 [Elesclomol] + N=C(N)NC(=N)NCCc1ccccc1 [Phenformin] (partner 250 µM)
Outline: as §1

Elesclomol + Pemetrexed = compound: CN(NC(=O)CC(=O)NN(C)C(=S)c1ccccc1)C(=S)c1ccccc1 [Elesclomol] + Nc1nc2[nH]cc(CCc3ccc(C(=O)N[C@@H](CCC(=O)O)C(=O)O)cc3)c2c(=O)[nH]1 [Pemetrexed] (partner 0.2 µM)
Outline: as §1

Elesclomol + OSI-027 = compound: CN(NC(=O)CC(=O)NN(C)C(=S)c1ccccc1)C(=S)c1ccccc1 [Elesclomol] + COc1cccc2cc(-c3nc([C@H]4CC[C@H](C(=O)O)CC4)n4ncnc(N)c34)[nH]c12 [OSI-027] (partner 0.5 µM)
Outline: as §1

Elesclomol + Palbociclib = compound: CN(NC(=O)CC(=O)NN(C)C(=S)c1ccccc1)C(=S)c1ccccc1 [Elesclomol] + CC(=O)c1c(C)c2cnc(Nc3ccc(N4CCNCC4)cn3)nc2n(C2CCCC2)c1=O [Palbociclib] (partner 0.5 µM)
Outline: as §1

Elesclomol + Trametinib = compound: CN(NC(=O)CC(=O)NN(C)C(=S)c1ccccc1)C(=S)c1ccccc1 [Elesclomol] + CC(=O)Nc1cccc(-n2c(=O)n(C3CC3)c(=O)c3c(Nc4ccc(I)cc4F)n(C)c(=O)c(C)c32)c1 [Trametinib] (partner 0.02 µM)
Outline: as §1

Elesclomol + Luminespib = compound: CN(NC(=O)CC(=O)NN(C)C(=S)c1ccccc1)C(=S)c1ccccc1 [Elesclomol] + CCNC(=O)c1noc(-c2cc(C(C)C)c(O)cc2O)c1-c1ccc(CN2CCOCC2)cc1 [Luminespib] (partner 0.01 µM)
Outline: as §1

Elesclomol + Olaparib = compound: CN(NC(=O)CC(=O)NN(C)C(=S)c1ccccc1)C(=S)c1ccccc1 [Elesclomol] + O=C(c1cc(Cc2n[nH]c(=O)c3ccccc23)ccc1F)N1CCN(C(=O)C2CC2)CC1 [Olaparib] (partner 8 µM)
Outline: as §1

Elesclomol + Decitabine = compound: CN(NC(=O)CC(=O)NN(C)C(=S)c1ccccc1)C(=S)c1ccccc1 [Elesclomol] + Nc1ncn([C@H]2C[C@H](O)[C@@H](CO)O2)c(=O)n1 [Decitabine] (partner 2 µM)
Outline: as §1

Elesclomol + Vorinostat = compound: CN(NC(=O)CC(=O)NN(C)C(=S)c1ccccc1)C(=S)c1ccccc1 [Elesclomol] + O=C(CCCCCCC(=O)Nc1ccccc1)NO [Vorinostat] (partner 1 µM)
Outline: as §1

Elesclomol = compound: CN(NC(=O)CC(=O)NN(C)C(=S)c1ccccc1)C(=S)c1ccccc1 [Elesclomol]
Outline: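 Lung cancer cell lines received five library-drug doses (not always all listed) spaced by √10, pinned on vehicle-anchored 1536-well plates after an overnight stay at 37 °C. Five days later, with no medium change, nuclei were Hoechst-stained, imaged at 4× and counted with MetaXpress. Viability is treated-well nuclei relative to vehicle-well nuclei, as a median across plates. Passing plates had control CV below 25% and at least one doubling.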

Elesclomol + Crizotinib = compound: CN(NC(=O)CC(=O)NN(C)C(=S)c1ccccc1)C(=S)c1ccccc1 [Elesclomol] + C[C@@H](Oc1cc(-c2cnn(C3CCNCC3)c2)cnc1N)c1c(Cl)ccc(F)c1Cl [Crizotinib] (partner 1 µM)
Outline: as §1

Elesclomol + Pictilisib = compound: CN(NC(=O)CC(=O)NN(C)C(=S)c1ccccc1)C(=S)c1ccccc1 [Elesclomol] + CS(=O)(=O)N1CCN(Cc2cc3nc(-c4cccc5[nH]ncc45)nc(N4CCOCC4)c3s2)CC1 [Pictilisib] (partner 1 µM)
Outline: as §1

Elesclomol + Lapatinib = compound: CN(NC(=O)CC(=O)NN(C)C(=S)c1ccccc1)C(=S)c1ccccc1 [Elesclomol] + CS(=O)(=O)CCNCc1ccc(-c2ccc3ncnc(Nc4ccc(OCc5cccc(F)c5)c(Cl)c4)c3c2)o1 [Lapatinib] (partner 2 µM)
Outline: as §1

Elesclomol + Bortezomib = compound: CN(NC(=O)CC(=O)NN(C)C(=S)c1ccccc1)C(=S)c1ccccc1 [Elesclomol] + CC(C)C[C@H](NC(=O)[C@H](Cc1ccccc1)NC(=O)c1cnccn1)B(O)O [Bortezomib] (partner 0.002 µM)
Outline: as §1

Elesclomol + Navitoclax = compound: CN(NC(=O)CC(=O)NN(C)C(=S)c1ccccc1)C(=S)c1ccccc1 [Elesclomol] + CC1(C)CCC(c2ccc(Cl)cc2)=C(CN2CCN(c3ccc(C(=O)NS(=O)(=O)c4ccc(N[C@H](CCN5CCOCC5)CSc5ccccc5)c(S(=O)(=O)C(F)(F)F)c4)cc3)CC2)C1 [Navitoclax] (partner 0.5 µM)
Outline: as §1

Elesclomol + Foretinib = compound: CN(NC(=O)CC(=O)NN(C)C(=S)c1ccccc1)C(=S)c1ccccc1 [Elesclomol] + COc1cc2c(Oc3ccc(NC(=O)C4(C(=O)Nc5ccc(F)cc5)CC4)cc3F)ccnc2cc1OCCCN1CCOCC1 [Foretinib] (partner 0.25 µM)
Outline: as §1

Elesclomol + Alpelisib = compound: CN(NC(=O)CC(=O)NN(C)C(=S)c1ccccc1)C(=S)c1ccccc1 [Elesclomol] + Cc1nc(NC(=O)N2CCC[C@H]2C(N)=O)sc1-c1ccnc(C(C)(C)C(F)(F)F)c1 [Alpelisib] (partner 2 µM)
Outline: as §1

Elesclomol + Linsitinib = compound: CN(NC(=O)CC(=O)NN(C)C(=S)c1ccccc1)C(=S)c1ccccc1 [Elesclomol] + C[C@]1(O)C[C@@H](c2nc(-c3ccc4ccc(-c5ccccc5)nc4c3)c3c(N)nccn32)C1 [Linsitinib] (partner 1 µM)
Outline: as §1

## NCI-H522
Elesclomol + Dasatinib; first compound 0.003162 µM
  relative viability: 0.842
Elesclomol + Dasatinib; first compound 0.01 µM
  relative viability: 0.812
Elesclomol + Dasatinib; first compound 0.03162 µM
  relative viability: 0.868
Elesclomol + Dasatinib; first compound 0.1 µM
  relative viability: 0.454
Elesclomol + AZD7762; first compound 0.003162 µM
  relative viability: 0.955
Elesclomol + AZD7762; first compound 0.01 µM
  relative viability: 0.857
Elesclomol + AZD7762; first compound 0.03162 µM
  relative viability: 0.756
Elesclomol + AZD7762; first compound 0.1 µM
  relative viability: 0.518
Elesclomol + Tozasertib; first compound 0.003162 µM
  relative viability: 0.563
Elesclomol + Tozasertib; first compound 0.01 µM
  relative viability: 0.608
Elesclomol + Tozasertib; first compound 0.03162 µM
  relative viability: 0.567
Elesclomol + Tozasertib; first compound 0.1 µM
  relative viability: 0.465
Elesclomol + Phenformin; first compound 0.003162 µM
  relative viability: 0.681
Elesclomol + Phenformin; first compound 0.01 µM
  relative viability: 0.736
Elesclomol + Phenformin; first compound 0.03162 µM
  relative viability: 0.668
Elesclomol + Phenformin; first compound 0.1 µM
  relative viability: 0.549
Elesclomol + Pemetrexed; first compound 0.003162 µM
  relative viability: 1.08
Elesclomol + Pemetrexed; first compound 0.01 µM
  relative viability: 1.09
Elesclomol + Pemetrexed; first compound 0.03162 µM
  relative viability: 1.18
Elesclomol + Pemetrexed; first compound 0.1 µM
  relative viability: 0.641
Elesclomol + OSI-027; first compound 0.003162 µM
  relative viability: 0.716
Elesclomol + OSI-027; first compound 0.01 µM
  relative viability: 0.62
Elesclomol + OSI-027; first compound 0.03162 µM
  relative viability: 0.634
Elesclomol + OSI-027; first compound 0.1 µM
  relative viability: 0.457
Elesclomol + Palbociclib; first compound 0.003162 µM
  relative viability: 1.16
Elesclomol + Palbociclib; first compound 0.01 µM
  relative viability: 0.819
Elesclomol + Palbociclib; first compound 0.03162 µM
  relative viability: 0.894
Elesclomol + Palbociclib; first compound 0.1 µM
  relative viability: 0.632
Elesclomol + Trametinib; first compound 0.003162 µM
  relative viability: 0.698
Elesclomol + Trametinib; first compound 0.01 µM
  relative viability: 0.792
Elesclomol + Trametinib; first compound 0.03162 µM
  relative viability: 0.821
Elesclomol + Trametinib; first compound 0.1 µM
  relative viability: 0.403
Elesclomol + Luminespib; first compound 0.003162 µM
  relative viability: 0.958
Elesclomol + Luminespib; first compound 0.01 µM
  relative viability: 1.02
Elesclomol + Luminespib; first compound 0.03162 µM
  relative viability: 1.06
Elesclomol + Luminespib; first compound 0.1 µM
  relative viability: 0.625
Elesclomol + Olaparib; first compound 0.003162 µM
  relative viability: 0.617
Elesclomol + Olaparib; first compound 0.01 µM
  relative viability: 0.812
Elesclomol + Olaparib; first compound 0.03162 µM
  relative viability: 0.618
Elesclomol + Olaparib; first compound 0.1 µM
  relative viability: 0.431
Elesclomol + Decitabine; first compound 0.003162 µM
  relative viability: 0.693
Elesclomol + Decitabine; first compound 0.01 µM
  relative viability: 0.649
Elesclomol + Decitabine; first compound 0.03162 µM
  relative viability: 0.7
Elesclomol + Decitabine; first compound 0.1 µM
  relative viability: 0.469
Elesclomol + Vorinostat; first compound 0.003162 µM
  relative viability: 0.927
Elesclomol + Vorinostat; first compound 0.01 µM
  relative viability: 0.888
Elesclomol + Vorinostat; first compound 0.03162 µM
  relative viability: 0.862
Elesclomol + Vorinostat; first compound 0.1 µM
  relative viability: 0.604
Elesclomol; 0.003162 µM
  relative viability: 1.03
Elesclomol; 0.01 µM
  relative viability: 0.877
Elesclomol; 0.03162 µM
  relative viability: 0.801
Elesclomol; 0.1 µM
  relative viability: 0.53

## NCI-H1299
Elesclomol + Crizotinib; first compound 0.003162 µM
  relative viability: 0.613
Elesclomol + Crizotinib; first compound 0.01 µM
  relative viability: 0.822
Elesclomol + Crizotinib; first compound 0.03162 µM
  relative viability: 0.698
Elesclomol + Crizotinib; first compound 0.1 µM
  relative viability: 0.507
Elesclomol + Pictilisib; first compound 0.003162 µM
  relative viability: 0.743
Elesclomol + Pictilisib; first compound 0.01 µM
  relative viability: 0.171
Elesclomol + Pictilisib; first compound 0.03162 µM
  relative viability: 0.134
Elesclomol + Pictilisib; first compound 0.1 µM
  relative viability: 0.0529
Elesclomol + Lapatinib; first compound 0.003162 µM
  relative viability: 0.947
Elesclomol + Lapatinib; first compound 0.01 µM
  relative viability: 0.852
Elesclomol + Lapatinib; first compound 0.03162 µM
  relative viability: 0.698
Elesclomol + Lapatinib; first compound 0.1 µM
  relative viability: 0.547
Elesclomol + Bortezomib; first compound 0.003162 µM
  relative viability: 1.03
Elesclomol + Bortezomib; first compound 0.01 µM
  relative viability: 0.921
Elesclomol + Bortezomib; first compound 0.03162 µM
  relative viability: 0.834
Elesclomol + Bortezomib; first compound 0.1 µM
  relative viability: 0.622
Elesclomol + Navitoclax; first compound 0.003162 µM
  relative viability: 1.05
Elesclomol + Navitoclax; first compound 0.01 µM
  relative viability: 0.97
Elesclomol + Navitoclax; first compound 0.03162 µM
  relative viability: 0.932
Elesclomol + Navitoclax; first compound 0.1 µM
  relative viability: 0.661
Elesclomol + Foretinib; first compound 0.003162 µM
  relative viability: 1.04
Elesclomol + Foretinib; first compound 0.01 µM
  relative viability: 1.06
Elesclomol + Foretinib; first compound 0.03162 µM
  relative viability: 0.588
Elesclomol + Foretinib; first compound 0.1 µM
  relative viability: 0.333
Elesclomol + Alpelisib; first compound 0.003162 µM
  relative viability: 1.08
Elesclomol + Alpelisib; first compound 0.01 µM
  relative viability: 1.05
Elesclomol + Alpelisib; first compound 0.03162 µM
  relative viability: 0.918
Elesclomol + Alpelisib; first compound 0.1 µM
  relative viability: 0.636
Elesclomol + Linsitinib; first compound 0.003162 µM
  relative viability: 0.994
Elesclomol + Linsitinib; first compound 0.01 µM
  relative viability: 0.677
Elesclomol + Linsitinib; first compound 0.03162 µM
  relative viability: 0.549
Elesclomol + Linsitinib; first compound 0.1 µM
  relative viability: 0.145
Elesclomol + Olaparib; first compound 0.003162 µM
  relative viability: 0.991
Elesclomol + Olaparib; first compound 0.01 µM
  relative viability: 0.574
Elesclomol + Olaparib; first compound 0.03162 µM
  relative viability: 0.401
Elesclomol + Olaparib; first compound 0.1 µM
  relative viability: 0.146
Elesclomol; 0.003162 µM
  relative viability: 1.03
Elesclomol; 0.01 µM
  relative viability: 0.733
Elesclomol; 0.03162 µM
  relative viability: 0.709
Elesclomol; 0.1 µM
  relative viability: 0.42
